Experimental data reported in publication PMC5118709, “Identification of Polo-like kinase 1 interaction inhibitors using a novel cell-based assay” (Scientific Reports, 2016).
Several values for one entry are separate records, joined by “and”; a condition that tells them apart may be missing. Equal entries are not always repeated.

Assays:
Plk1-Map interaction [1] = biological target: T1, Plk1-Map interaction (Homo sapiens, UniProt P53350); assay: BRET Plk1-Map, stable HEK293T Plk1-Luc/GFP-Map cell line; type: cell-based; set-up: cDNAs for the human full length Plk1; expressed in transfected cells; conditions: for Primary screen Plk1-Map (stable) % Inihibition / Primary screen Plk1-Map (stable) % Quench RLuc: 10-25 μM, 2 h; for Confirmation Plk1-Map (stable) % Inihibition / Confirmation Plk1-Map (stable) % Quench RLuc: confirmation screen
T1 sequence (P53350 whole entry): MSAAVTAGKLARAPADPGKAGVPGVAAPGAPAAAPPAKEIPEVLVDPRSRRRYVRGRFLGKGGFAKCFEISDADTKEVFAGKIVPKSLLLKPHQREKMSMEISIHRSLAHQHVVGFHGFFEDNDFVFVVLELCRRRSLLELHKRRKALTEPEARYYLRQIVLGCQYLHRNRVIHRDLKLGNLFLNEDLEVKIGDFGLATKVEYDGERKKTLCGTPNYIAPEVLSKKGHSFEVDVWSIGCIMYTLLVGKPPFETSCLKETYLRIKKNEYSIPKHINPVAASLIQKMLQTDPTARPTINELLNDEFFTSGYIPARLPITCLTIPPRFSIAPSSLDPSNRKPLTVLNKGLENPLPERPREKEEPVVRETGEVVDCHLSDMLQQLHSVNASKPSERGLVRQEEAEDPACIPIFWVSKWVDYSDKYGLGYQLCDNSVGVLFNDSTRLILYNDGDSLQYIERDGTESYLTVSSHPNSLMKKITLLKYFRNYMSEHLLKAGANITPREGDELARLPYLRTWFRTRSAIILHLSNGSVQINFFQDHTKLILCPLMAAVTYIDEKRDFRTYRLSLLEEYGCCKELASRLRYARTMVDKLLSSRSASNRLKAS
Text: To develop a cell-based assay for the identification of Plk1 interaction inhibitors, we used Bioluminescence Resonance Energy Transfer (BRET)[42][43]. The assay monitors the interaction in HEK293T cells between Plk1 and Map205, a protein that we previously identified as an interactor of Drosophila Polo (Plk1 ortholog) on its PBD[44]. Although no ortholog of Drosophila Map205 has been found in vertebrates, this protein robustly interacts with vertebrate Plk1. […] Importantly, crystallography with zebrafish Plk1 has recently shown that Map205 nevertheless docks in the canonical phosphopeptide binding site of the PBD, with the natural phospho-mimetic Glu314 residue (Fig. 1A)[45]. In our assay, human Plk1 and a fragment of Drosophila Map205 (Map205_254-416 = Map) are respectively fused to Renilla luciferase II (Luc) and GFP10 (GFP), giving rise to energy transfer when the proteins are in close proximity (Fig. 1B). […] All combinations of Plk1 and Map tagged with Luc and GFP were tested (Supplementary Fig. S1). The Plk1-Luc/GFP-Map combination was selected because it yielded the highest BRET dynamic window. We then generated clonal stable cell lines co-expressing these two fusion proteins. These cell lines behaved very similarly to each other in BRET, and we selected one line that gave a high and reproducible BRET signal, with a Z′ score of 0.78, indicative of a robust assay for the purpose of a chemical screen (Supplementary Fig. S1).
(§1) We used our cell-based assay to screen a library of 112 983 compounds available in-house at IRIC’s High-Throughput Screening (HTS) platform (see Materials & Methods). Compounds were tested on cells in 384-well plates at concentrations between 10 μM and 25 μM, depending on their concentration in the original stocks solutions. BRET readings were taken 2 hours after treatment. Results obtained show a tight, close to normal distribution centered around zero inhibition relative to DMSO-treated controls (Fig. 1D). Compounds inducing at least 30% BRET inhibition were selected. From these, auto-fluorescent compounds and those that induced more than 90% reduction in RLucII luminescence were removed, leaving 800 primary hits, that we then re-tested using the same assay. In parallel, we tested these compounds in a control BRET assay for an unrelated pair of interacting proteins (BRAF-CRAF[46]) to exclude false-positive compounds that could reduce the BRET signal by interfering with light or by modifying the activity of GFP or Luc.
For BRET on transiently transfected cells, 48 hours after the transfection, medium was removed, cells were washed twice with PBS, and then Tyrode solution (140 mM NaCl, 2.7 mM KCl, 12 mM NaHCO3, 5.6 mM D-glucose, 0.49 mM MgCl2, 0.37 mM NaH2PO4, 25 mM HEPES, pH 7.4, where 1 mM CaCl2 was freshly added) was added to the cells. Total fluorescence was first measured using a FlexStation II microplate reader (Molecular Devices), where the GFP10 was excited at 400 nm and read at 510 nm. Then, cells were treated for 5 minutes with 2.5 μM coelenterazine 400a (Gold Technology) before reading BRET2 using the Mithras LB940 microplate reader (Berthold Technologies). BRET2 signal corresponds to the light emitted by the GFP10 acceptor constructs (515 nm ± 20 nm) divided by the light emitted by the RlucII donor constructs (400 nm ± 70 nm). Net BRET2 was calculated by subtracting the background BRET ratio of the RLucII plasmid alone from the BRET ratio obtained by the two BRET partners. The Net BRET2 was plotted according to the GFP10/RLucII ratio, which was obtained by dividing the total fluorescence by the RLucII emission.
For the high throughput chemical screen, cells were amplified and frozen as multiple 1 ml aliquots containing 25 millions of stable HEK293T Plk1-Luc/GFP-Map cells to ensure that cells at the same passage number are used during the screen. […] Five days later, cells were counted and re-suspended in Tyrode solution. […]

HeLa cells [2] = assay: mitotic defect phenotypes by immunofluorescence; type: cell-based; conditions: 10 μM, 7 h
Protocol: HeLa cells were treated with these compounds along with the known PBD inhibitors PPG, TQ, Poloxin and the KD inhibitor BI2536 as controls, and then stained against α-Tubulin, pericentrin (a centrosome marker) and DNA (Fig. 2D). In all cases, there was a marked increase in the frequency of disorganized spindles compared with DMSO-treated control cells. This is expected as Plk1 plays multiple roles in spindle assembly and maintenance. […] Cpd 69, an analog of compound 122, induced a similar phenotype at lower concentrations (data not shown). This phenotype was not seen after treatment with BI2536.
For the mitotic defect phenotypes, 25 200 HeLa cells were plated on poly-L-lysine coated round cover slips in 24-well plates. The day after, cells were treated for 7 hours, and then washed with PHEM buffer at 37 °C before fixation in PHEM buffer containing 4% formaldehyde for 20 minutes at 37 °C. Cells were washed three times with TBS-tween 0.1% and plate was kept overnight at 4 °C. Next steps were followed as previously described except that coverslips were incubated in a dark wet chamber with antibodies. Anti-pericentrin (diluted 1:1000; Abcam), anti-α-tubulin DM1A (diluted 1:500; Sigma-Aldrich), Alexa Fluor 488 anti-rabbit and Texas-Red anti-mouse (diluted 1:200; Invitrogen) were used. Coverslips were mounted on slide using Vectashield media containing DAPI (Vector Laboratories).
Images shown in Fig. 2D were acquired on an AxioImager microscope (Carl Zeiss) with a 100x oil objective (NA 1.4 DICIII) and an AxioCam HRM camera (Carl Zeiss) using AxioVision software (Carl Zeiss).

CRAF-BRAF = biological target: T2, CRAF-BRAF (Homo sapiens, UniProt P04049+P15056); assay: control BRET CRAF-BRAF (transient); type: cell-based; conditions: for Primary screen CRAF-BRAF (transient) % Inihibition / Primary screen CRAF-BRAF (transient) % Quench RLuc: 10-25 μM; for Confirmation CRAF-BRAF (transient) % Inihibition / Confirmation CRAF-BRAF (transient) % Quench RLuc: confirmation screen
T2 construct: expressed in transfected cells; host or cells: HEK293T, transient transfection with PEI
T2 sequence (P04049 whole entry): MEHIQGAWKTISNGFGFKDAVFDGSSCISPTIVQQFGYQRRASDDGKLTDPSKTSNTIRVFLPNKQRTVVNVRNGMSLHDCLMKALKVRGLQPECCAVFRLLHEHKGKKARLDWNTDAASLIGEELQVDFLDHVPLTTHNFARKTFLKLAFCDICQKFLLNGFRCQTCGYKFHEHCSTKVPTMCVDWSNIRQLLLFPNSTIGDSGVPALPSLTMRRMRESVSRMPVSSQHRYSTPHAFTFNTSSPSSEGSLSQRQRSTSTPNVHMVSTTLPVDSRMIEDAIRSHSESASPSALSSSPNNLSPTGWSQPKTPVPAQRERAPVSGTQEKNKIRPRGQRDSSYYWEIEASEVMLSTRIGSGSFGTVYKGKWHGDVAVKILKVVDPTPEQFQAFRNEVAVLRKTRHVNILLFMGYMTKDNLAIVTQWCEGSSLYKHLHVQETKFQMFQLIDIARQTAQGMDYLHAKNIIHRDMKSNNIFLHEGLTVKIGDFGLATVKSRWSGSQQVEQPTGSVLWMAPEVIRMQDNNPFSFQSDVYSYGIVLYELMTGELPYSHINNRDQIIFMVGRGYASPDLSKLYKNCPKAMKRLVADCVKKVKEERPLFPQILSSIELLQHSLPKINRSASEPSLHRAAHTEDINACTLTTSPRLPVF
T2 sequence (P15056 whole entry): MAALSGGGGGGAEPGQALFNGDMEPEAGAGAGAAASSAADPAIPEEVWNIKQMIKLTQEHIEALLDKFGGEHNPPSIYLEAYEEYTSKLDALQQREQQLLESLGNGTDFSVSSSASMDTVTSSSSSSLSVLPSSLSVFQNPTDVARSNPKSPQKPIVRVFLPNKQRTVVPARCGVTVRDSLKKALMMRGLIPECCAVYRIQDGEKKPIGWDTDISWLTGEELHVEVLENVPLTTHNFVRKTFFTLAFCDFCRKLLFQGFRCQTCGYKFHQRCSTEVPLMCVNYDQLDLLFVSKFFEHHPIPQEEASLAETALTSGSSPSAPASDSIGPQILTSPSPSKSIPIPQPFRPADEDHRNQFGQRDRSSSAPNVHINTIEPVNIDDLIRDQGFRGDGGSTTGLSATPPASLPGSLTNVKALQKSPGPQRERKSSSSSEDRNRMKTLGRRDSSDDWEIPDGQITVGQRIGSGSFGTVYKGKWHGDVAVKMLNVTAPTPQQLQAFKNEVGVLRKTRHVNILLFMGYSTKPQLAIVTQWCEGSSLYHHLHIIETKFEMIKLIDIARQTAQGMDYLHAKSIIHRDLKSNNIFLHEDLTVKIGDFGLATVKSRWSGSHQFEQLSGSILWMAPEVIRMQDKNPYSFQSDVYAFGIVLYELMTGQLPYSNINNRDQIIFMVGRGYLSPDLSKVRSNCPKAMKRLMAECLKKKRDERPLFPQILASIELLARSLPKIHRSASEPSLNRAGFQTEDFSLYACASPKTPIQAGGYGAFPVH
Protocol: as §1
(§2) For the confirmation screen, the same procedure as for the primary screen was followed, except that HEK293T cells were also seeded at 6.25 millions of cells per simple CellStack on day 1 for transient transfections. These cells were transfected on day 3 with Luc-Map (5 μg) and Plk1-GFP (25 μg) pIRESHyg3 plasmids using polyethylenimine (PEI). To identify false-positives compounds, Luc-CRAF (4 μg) and GFP-BRAF (20 μg) plasmids were also transfected with PEI following the published procedure.

Plk1-Map interaction [3] = biological target: T1, Plk1-Map interaction; assay: BRET Plk1-Map, transient Luc-Map/Plk1-GFP in HEK293T; type: cell-based; set-up: cDNAs for the human full length Plk1; expressed in transfected cells; conditions: confirmation screen
Protocol: as §2

HeLa cells [4] = assay: mitotic index assay (phospho-Histone H3) in HeLa cells; type: cell-based; conditions: for effect on mitotic index, purchased compounds: 10 μM; for Mitotic index (%): 10-25 μM, 7 h
GST-PBD367-603 of Plk1 = GST-PBD367-603 of Plk1 (Homo sapiens, UniProt P53350); assay: fluorescence polarization assay PBD-phosphopeptide; conditions: for activity in the FP assay: 50 μM
GST-PBD367-603 of Plk1, sequence (P53350 367-603): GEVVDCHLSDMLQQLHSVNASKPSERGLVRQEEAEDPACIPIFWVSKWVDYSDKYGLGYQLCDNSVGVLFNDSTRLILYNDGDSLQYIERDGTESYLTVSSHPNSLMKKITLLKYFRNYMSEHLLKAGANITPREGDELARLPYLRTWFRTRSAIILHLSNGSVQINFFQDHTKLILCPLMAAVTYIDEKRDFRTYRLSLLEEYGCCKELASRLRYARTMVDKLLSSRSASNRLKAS
Protocol: In this assay, an optimal phosphopeptide for PBD binding is coupled with a FITC fluorophore and its binding to purified recombinant PBD of Plk1 is monitored by the change in polarization of incident light.
The FP buffer was composed of 10 mM Tris pH 8.0, 50 mM NaCl, 1 mM EDTA, 20% glycerol and 0.1% NP-40. The peptide (final concentration 10 nM) was always added to the wells of non-binding, black, 384-well plates, 1 hour after the addition of the protein with the buffer (+/− treatment, 10% DMSO). […] EC65s were used to perform the competitive assays with the non-labeled peptides and with the inhibitors. FP Inhibition was calculated with the formula: 100 − [((mPsample − mPfree peptide)\(mPDMSO − mPfree peptide)) × 100]. […] (Map peptide), and corresponding non-labeled peptides are identical but without FITC in N-terminal. […] Inhibition curves were fitted with GraphPad (Prism software).

HEK293T cells = assay: mitotic index assay (phospho-Histone H3) in HEK293T cells
Protocol: For the mitotic index assay, 4000 HeLa cells or 5000 HEK293T cells per well were seeded in a 96-well plate. The day after, cells were incubated for 7 hours with different compounds, and then fixed by adding formaldehyde (4% final concentration) directly to each well. Plates were incubated 20 minutes at 37 °C, and then wells were rinsed three times with TBS-Tween 0.1%. A 1 hour block with PHEM buffer (60 mM Pipes, 25 mM HEPES, 10 mM EGTA, 4 mM MgSO4, pH 6.9) containing 2% BSA and 0.1% triton was performed, before addition of the primary antibody to the wells. The anti-phospho-Histone H3 (Ser10) antibody (EMD Millipore) was diluted 1:300 in PHEM buffer containing 2% BSA and added to the wells for 2 hours at room temperature in the dark. […] Plates were incubated for 1h 30 at room temperature in the dark, and then wells were washed 3 times with TBS-Tween 0.1%. A solution of Mowiol containing DAPI was finally added to the wells. Plates were kept at 4 °C in the dark until imaging using the 20x objective on an Operetta system (Perkin Elmer inc.). The mitotic index, corresponding to the percentage of pHH3 positive cells relative to the total number of DAPI-stained cells detected was calculated by the Operetta using the Harmony 3.5 software. Experiments were done in triplicates.

Plk1-Map interaction [5] = biological target: T1, Plk1-Map interaction; assay: LUMIER co-immunoprecipitation assay Plk1-Map; conditions: for Average-Beads (mean luminescence) / Co-IP Values relative to top in plate column = 1 / effect on the Plk1-Map interaction in co-IP / Luminescence on beads, duplicate wells: 10-25 μM, 2 h; for Relative Luminescence Unit: mean divided by maximum mean of the compounds; for Luminescence on beads, duplicate wells: raw data
Protocol: After cell lysis, GFP-Plk1 was immunoprecipitated and co-purified Map-Luc was measured by luminescence following addition of the luciferase substrate, coelenterazine.
Half a million stably transfected Map205-RLucII/GFP10-Plk1 cells in Tyrode solution were seeded per well in a 96-well plate and allowed to settle for 30 min at 37 °C. […] Plates were then centrifuged at 4 °C at 3000 rpm for 5 minutes to pellet cells. Cells were then lysed with the IP buffer (20 mM Tris pH 7.5, 150 mM NaCl, 2 mM EGTA, 0.5% NP-40, 1 mM DTT, PMSF, aprotinin and leupeptin) and incubated on ice for 20 minutes. Plates were centrifuged again at 4 °C at 3400 rpm for 10 minutes, and the soluble fraction was transferred into a new 96-well plate. Note that 10 μl of this fraction was transferred in white 96-well plates from which the luminescence was read as a measure of the input amount of cell lysate for the co-IP. GFP-Plk1 was immunoprecipitated by adding 0.35 μl of anti-GFP antibody (Invitrogen). Plates were sealed and incubated on a rotator at 4 °C for 30 minutes. Then, 4 μl of pre-washed protein A magnetic beads (Invitrogen) were added to each well. Plates were sealed and incubated at 4 °C for 1h30. The extracts + beads were then transferred in a 96-well PCR plates and beads were washed 3 times with the IP buffer using a magnetic 96-well rack. The fourth wash was done in Tyrode solution, then beads were re-suspended with it and transferred in a white 96-well plate. […] Tyrode was also added to the plates containing the input fraction, then Coelenterazine h was added to the wells, and enhanced luminescence was read as described above.

[6] = reaction with amino-protected amino acids (LC-MS); conditions: room temperature
Protocol: Vinyl sulfones are reactive species that can alkylate substrates as a result of a nucleophilic attack on the distal carbon of the vinyl group. To evaluate the potential of Cpd 161 (vinyl sulfone) to react with proteins, we tested its reaction with nucleophilic amino acid side chains groups. […] To test whether Cpd 161 could react covalently with the PBD, we incubated them together and examined the molecular mass of the protein by SDS-PAGE (Fig. 7). […] Consistent with this idea, the extent of the shift depended on the concentration of Cpd 161 used (Fig. 7B) and also on the incubation time (Fig. 7C).
To a stirred solution of electrophile (0.02 mmol) and amino acid (1- 1.5eq) in DMF (0.3 ml) were added a few drops of a diluted aqueous solution of sodium bicarbonate. The reaction was monitored using an Agilent 6120 Quadrupole LC/MS system (Agilent Technologies). In all cases, the molecular ion of the product was observed.

| Compound | Primary screen Plk1-Map (stable) % Inihibition (Plk1-Map interaction [1]) [%] | Primary screen Plk1-Map (stable) % Quench RLuc (Plk1-Map interaction [1]) [%] | Confirmation Plk1-Map (stable) % Inihibition (Plk1-Map interaction [1]) [%] | Confirmation Plk1-Map (stable) % Quench RLuc (Plk1-Map interaction [1]) [%] | 2 > pericentrin foci (percentage of cells) (HeLa cells [2]) [%] | Disorganized spindles (percentage of cells) (HeLa cells [2]) [%] | Primary screen CRAF-BRAF (transient) % Inihibition (CRAF-BRAF) [%] | Primary screen CRAF-BRAF (transient) % Quench RLuc (CRAF-BRAF) [%] | Confirmation CRAF-BRAF (transient) % Inihibition (CRAF-BRAF) [%] | Confirmation CRAF-BRAF (transient) % Quench RLuc (CRAF-BRAF) [%] | Confirmation Plk1-Map (transient) % Inihibition (Plk1-Map interaction [3]) [%] | Confirmation Plk1-Map (transient) % Quench RLuc (Plk1-Map interaction [3]) [%] | effect on mitotic index, purchased compounds (HeLa cells [4]) | Mitotic index (%) (HeLa cells [4]) | activity in the FP assay (GST-PBD367-603 of Plk1) | effect on mitotic index, purchased compounds (HEK293T cells; 10 μM) | Average-Beads (mean luminescence) (Plk1-Map interaction [5]) | Co-IP Values relative to top in plate column = 1 (Plk1-Map interaction [5]) | Relative Luminescence Unit (Plk1-Map interaction [5]) | Luminescence on beads, duplicate wells (Plk1-Map interaction [5]) | other results |
| --- | --- | --- | --- | --- | --- | --- | --- | --- | --- | --- | --- | --- | --- | --- | --- | --- | --- | --- | --- | --- | --- |
| COc1ccc(-c2oc3ccccc3c(=O)c2OS(=O)(=O)c2cc(OC)ccc2OC)cc1 [Cpd 69] | 77.38 | 86.93 | 49.85 | 91.91 | 2 ± 2 | 100 ± 0 | 18.32 | 72.42 | 7.18 | 67.88 | -0.61 | 62.73 | significant increase | 30.13 | little or no activity | significant increase | 281,985 | 0.866 | 0.866 | 232,744 and 331,226 | effect on mitotic index, purchased compounds (HEK293T cells; 1 μM): small increase; effect on the Plk1-Map interaction in co-IP (Plk1-Map interaction [5]): no effect |
| COc1ccc(-c2oc3ccccc3c(=O)c2OS(=O)(=O)c2cc(Cl)ccc2Cl)cc1 [Cpd 122] | 44.05 | 86.60 | 30.57 | 79.14 | 65 ± 2 | 85 ± 5 | -8.30 | 44.16 | 3.03 | 35.15 | -1.93 | 25.69 | significant increase |  | little or no activity | significant increase | 1,018,574 | 0.776 | 0.776 |  | effect on the Plk1-Map interaction in co-IP (Plk1-Map interaction [5]): no effect |
| COc1ccc(-c2oc3ccccc3c(=O)c2OS(=O)(=O)c2ccccc2)cc1 [Cpd 46] | 53.18 | 82.37 | 30.35 | 91.04 |  |  | 16.40 | 63.54 | 19.45 | 66.12 | -29.25 | 72.57 |  | 29.44 |  |  | 601,974 | 0.219 | 0.219 | 584,340 and 619,608 |  |
| CC1=CC(=O)C(C(C)C)=C/C1=N\OC(=O)c1ccccc1C [Poloxin] |  |  |  |  | 27 ± 21 | 61 ± 14 |  |  |  |  |  |  |  |  |  |  |  |  |  |  | mitotic index (HeLa cells [4]; 25 μM): around 20%; time to completion of reaction with amino-protected histidine [6]: approximately 10 minutes; time to completion of reaction with amino-protected lysine [6]: approximately 10 minutes |
| N#Cc1cccnc1S(=O)(=O)CCOC(=O)c1cccc(Cl)c1 [Cpd 15] | 67.91 | 84.93 | 41.55 | 78.03 |  |  | 31.50 | 81.13 | -4.59 | 86.14 | 53.01 | 72.97 |  | 0.81 |  |  | 18,942 | 0.017 | 0.017 | 18,060 and 19,824 | IC50 (GST-PBD367-603 of Plk1; FP - IC50 (μM), Table S3): 5.7 ± 2.8 µM; IC50 (GST-PBD367-603 of Plk1; IC50 in FP, GST-PBD367-603 38 nM, 1 h pre-incubation, FITC-phosphopeptide 10 nM, Fig. 4C): 6 µM |
